Experimental data published in PMC6152064 (Molecules : A Journal of Synthetic Chemistry and Natural …, 2017).
Values joined by “and” are separate entries in the source; they are usually repeats but may differ in a detail not shown here. Identical values can stand only once.

Legend:
[1] = target: T1, hGal8^NTD (N-terminal domain of human galectin-8) (Homo sapiens, UniProt O00214); assay: NMR titration, global fit of chemical shift perturbations (CSP); format: binding; details: 298 K, global fit of CSPs > 2σ
T1 construct: hexahistidine tag (N); made in house; host or cells: Escherichia coli BL21 (DE3)
T1 sequence (O00214 1-155 limits assumed): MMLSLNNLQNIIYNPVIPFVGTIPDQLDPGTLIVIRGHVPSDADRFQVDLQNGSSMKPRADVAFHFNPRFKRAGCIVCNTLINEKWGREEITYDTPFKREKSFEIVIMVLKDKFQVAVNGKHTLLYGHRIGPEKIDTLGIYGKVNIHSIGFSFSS

[2] = target: T2, hGal8^CTD (C-terminal domain of human galectin-8) (Homo sapiens, UniProt O00214); assay: as above; format: binding; details: 298 K, global fit of CSPs > 2σ
T2 construct: the N-terminal and C-terminal domains of galectin-8 (hGal8^NTD and hGal8^CTD, respectively); made in house; host or cells: Escherichia coli BL21 (DE3)
T2 sequence (O00214 187-317 limits assumed): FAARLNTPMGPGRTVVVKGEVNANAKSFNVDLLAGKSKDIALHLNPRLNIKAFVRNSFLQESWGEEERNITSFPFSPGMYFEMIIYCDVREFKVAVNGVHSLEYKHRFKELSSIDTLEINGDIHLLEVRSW

[3] = target: T2, hGal8^CTD (C-terminal domain of human galectin-8); assay: 2D NMR lineshape analysis (TITAN), two-state binding model; details: 298 K
Method: (§1) HSQC spectra were also analysed by the TITAN program using a two-state binding model. […] Eight peaks with significant CSPs were chosen to be fitted for each titration experiment. Error analysis was performed by the bootstrap resampling module in the program with 100 resampled spectra.

[4] = target: T1, hGal8^NTD (N-terminal domain of human galectin-8); assay: as above; details: Lactose Kd, 298 K
Method: as §1

hGal7 = target: T3, hGal7 (Homo sapiens, UniProt P47929); assay: Lactose binding affinity, summary over NMR, intrinsic fluorescence, BLI and ITC
T3 construct: The constructs encoding the open reading frames of hGal1, hGal7 and hGal8 with a hexahistidine tag at the N-termini; hexahistidine (N); made in house; host or cells: Escherichia coli BL21 (DE3)
Method: (§2) The samples were subjected to intrinsic fluorescence measurements using a 3 mm quartz cell (Hellma) and a fluorimeter (Jasco FP-8500, Hachioji, Tokyo, Japan). […] The resulting titration data were processed by SVD analysis, as described previously.
(§3) BLI experiments were carried out using an Octet Red96 system (FortéBio, Menlo Park, CA, USA), as described previously.
as §1

[5] = target: glutathione-S-transferase (GST)-fused hGal8^NTD; design: method as in PMID 12851289; details: read-out: lactose Kd (SPR); cited from earlier work
GST-fused hGal8^CTD = target: GST-fused hGal8^CTD; design: method as in PMID 12851289; details: read-out: lactose Kd (SPR); cited from earlier work
[6] = target: GST-fused tandem-repeat construct (hGal8); design: method as in PMID 12851289; details: read-out: apparent lactose Kd (SPR); cited from earlier work
hGal1 (human galectin-1) = hGal1 (human galectin-1) (Homo sapiens, UniProt P09382); assay: Isothermal titration calorimetry (ITC); details: 298 K, PBS
Method: (§5) The experiments were carried out at 298 K and in PBS. […] The thermograms were extracted, processed and subjected to nonlinear regression using the built-in software based on Origin (OriginLab, Northampton, MA, USA) to determine the respective binding constants.

hGal7 (human galectin-7) [7] = target: T4, hGal7 (human galectin-7) (Homo sapiens, UniProt P47929); assay: Isothermal titration calorimetry (ITC)
Method: as §5

hGal8^NTD [8] = target: T5, hGal8^NTD (Homo sapiens, UniProt O00214); assay: Isothermal titration calorimetry (ITC)
T5 sequence (O00214 1-155 limits assumed): T1 sequence (O00214 1-155 limits assumed)
Method: as §5

hGal8^CTD [9] = target: T6, hGal8^CTD (Homo sapiens, UniProt O00214); assay: Isothermal titration calorimetry (ITC)
T6 sequence (O00214 187-317 limits assumed): T2 sequence (O00214 187-317 limits assumed)
Method: as §5

[10] = target: T7, hGal8^full(NTD) (NTD of full-length galectin-8) (Homo sapiens, UniProt O00214); assay: NMR titration, global fit of chemical shift perturbations (CSP); details: Lactose Kd, NTD of full-length hGal8 (tandem-repeat, 17-residue linker), 298 K
T7 sequence (O00214 1-317): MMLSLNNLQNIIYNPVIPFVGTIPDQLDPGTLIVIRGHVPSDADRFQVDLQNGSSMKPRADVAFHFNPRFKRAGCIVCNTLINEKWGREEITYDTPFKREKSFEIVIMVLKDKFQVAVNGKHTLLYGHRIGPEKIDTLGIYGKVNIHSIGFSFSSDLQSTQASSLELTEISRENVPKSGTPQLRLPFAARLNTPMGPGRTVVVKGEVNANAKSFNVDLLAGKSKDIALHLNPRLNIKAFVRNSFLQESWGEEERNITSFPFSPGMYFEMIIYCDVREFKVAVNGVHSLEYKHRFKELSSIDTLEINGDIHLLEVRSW

[11] = target: T8, hGal8^full(CTD) (CTD of full-length galectin-8) (Homo sapiens, UniProt O00214); assay: as above; details: Lactose Kd, CTD of full-length hGal8 (tandem-repeat, 17-residue linker), 298 K
T8 sequence (O00214 1-317): T7 sequence (O00214 1-317)

hGal8^NTD [12] = target: T5, hGal8^NTD; assay: Intrinsic tryptophan fluorescence titration (SVD analysis); format: binding; design: hexahistidine tag (N); made in house; host or cells: Escherichia coli BL21 (DE3); details: 298 K, PBS, 10 μM protein
Text: as §2

hGal8^NTD [13] = target: T5, hGal8^NTD; assay: Bio-layer interferometry (BLI), steady-state fit; format: binding; design: hexahistidine tag (N); made in house; host or cells: Escherichia coli BL21 (DE3); details: biotinylated galectin on SSA biosensor
Method: as §3

hGal8^NTD [14] = target: T5, hGal8^NTD; assay: Lactose binding affinity, summary over NMR, intrinsic fluorescence, BLI and ITC; design: hexahistidine tag (N); made in house; host or cells: Escherichia coli BL21 (DE3); details: summary over the biophysical tools
Method: as §2, §3, §1

hGal8^CTD [15] = target: T6, hGal8^CTD; assay: Intrinsic tryptophan fluorescence titration (SVD analysis); format: binding; design: hGal8 N-terminal domain (hGal8^NTD) and C-terminal domain (hGal8^CTD); made in house; host or cells: Escherichia coli BL21 (DE3); details: 298 K, PBS, 10 μM protein
Text: as §2

hGal8^CTD [16] = target: T6, hGal8^CTD; assay: Bio-layer interferometry (BLI), steady-state fit; format: binding; design: hGal8 N-terminal domain (hGal8^NTD) and C-terminal domain (hGal8^CTD); made in house; host or cells: Escherichia coli BL21 (DE3); details: biotinylated galectin on SSA biosensor
Method: as §3

hGal8^CTD [17] = target: T6, hGal8^CTD; assay: Lactose binding affinity, summary over NMR, intrinsic fluorescence, BLI and ITC; design: hGal8 N-terminal domain (hGal8^NTD) and C-terminal domain (hGal8^CTD); made in house; host or cells: Escherichia coli BL21 (DE3); details: summary over the biophysical tools
Method: as §2, §3, §1

[18] = target: T8, hGal8^full(CTD) (CTD of full-length galectin-8); assay: 2D NMR lineshape analysis (TITAN), two-state binding model; design: A full-length hGal8 (hGal8^full) variant encompassing a 17-residue linker was used; hexahistidine tag (N); made in house; host or cells: Escherichia coli BL21 (DE3); details: CTD of full-length hGal8 (N215), 298 K
Method: (§4) The advantage of using NMR titration to determine Kd values is the ability to simultaneously characterise microscopy binding events at different binding sites. […] The same lineshape analysis was performed for hGal8^full titration experiments, which yielded similar Kd values to those derived from CSP data (Figure S2; Table 1).
as §1

[19] = target: T7, hGal8^full(NTD) (NTD of full-length galectin-8); assay: as above; design: A full-length hGal8 (hGal8^full) variant encompassing a 17-residue linker was used; hexahistidine tag (N); made in house; host or cells: Escherichia coli BL21 (DE3); details: NTD of full-length hGal8 (G127), 298 K
Method: as §4, §1

hGal7 (human galectin-7) [20] = target: T4, hGal7 (human galectin-7); assay: NMR titration, global fit of chemical shift perturbations (CSP); format: binding; design: The constructs encoding the open reading frames of hGal1, hGal7 and hGal8 with a hexahistidine tag at the N-termini; hexahistidine tag (N); made in house; host or cells: Escherichia coli BL21 (DE3); details: 298 K, global fit of CSPs > 2σ
hGal7 (human galectin-7) [21] = target: T4, hGal7 (human galectin-7); assay: 2D NMR lineshape analysis (TITAN), two-state binding model; design: The constructs encoding the open reading frames of hGal1, hGal7 and hGal8 with a hexahistidine tag at the N-termini; hexahistidine tag (N); made in house; host or cells: Escherichia coli BL21 (DE3); details: 298 K
Method: as §1

hGal7 (human galectin-7) [22] = target: T4, hGal7 (human galectin-7); assay: Intrinsic tryptophan fluorescence titration (SVD analysis); format: binding; design: The constructs encoding the open reading frames of hGal1, hGal7 and hGal8 with a hexahistidine tag at the N-termini; hexahistidine tag (N); made in house; host or cells: Escherichia coli BL21 (DE3); details: Lactose Kd, 298 K, PBS, 10 μM protein
Text: as §2

hGal7 (human galectin-7) [23] = target: T4, hGal7 (human galectin-7); assay: Bio-layer interferometry (BLI), steady-state fit; format: binding; design: The constructs encoding the open reading frames of hGal1, hGal7 and hGal8 with a hexahistidine tag at the N-termini; hexahistidine tag (N); made in house; host or cells: Escherichia coli BL21 (DE3); details: biotinylated galectin on SSA biosensor
Method: as §3

hGal3 = details: cited from earlier work

Chain of hGal1 (human galectin-1) (P09382 whole entry): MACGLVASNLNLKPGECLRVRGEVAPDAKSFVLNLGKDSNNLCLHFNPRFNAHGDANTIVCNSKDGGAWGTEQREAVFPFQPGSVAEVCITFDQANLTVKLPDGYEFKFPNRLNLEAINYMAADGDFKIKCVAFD
T4 sequence (P47929 whole entry): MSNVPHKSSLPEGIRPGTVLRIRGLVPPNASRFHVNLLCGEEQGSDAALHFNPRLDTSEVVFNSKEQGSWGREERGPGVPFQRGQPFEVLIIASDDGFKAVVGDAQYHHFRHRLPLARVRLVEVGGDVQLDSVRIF
T3 sequence (P47929 whole entry): as above

## OC[C@H]1O[C@@H](O[C@H]2[C@H](O)[C@@H](O)C(O)O[C@@H]2CO)[C@H](O)[C@@H](O)[C@H]1O (mixture of isomers) [Lactose, lactose]
[1]
  Kd: 84 ± 9 µM
[2]
  Kd: 664 ± 59 µM
[3]
  Kd: 950 ± 10 µM
[4]
  Kd: 86.3 µM and 86 µM
hGal7
  Kd: ~350 µM
[5]
  Kd: 80 µM
GST-fused hGal8^CTD
  Kd: 440 µM
[6]
  Kd: 140 µM
hGal1 (human galectin-1)
  N (ITC OneSites model): 1.51 ± 0.113 sites
  ΔH (ITC OneSites model): -5.772 ± 0.4897 kcal/mol
  ΔS (ITC OneSites model): -2.53 cal/mol/deg
hGal7 (human galectin-7) [7]
  Kd: 323 µM
hGal7 (human galectin-7) [7]; hGal7, 298 K, PBS
  N (ITC OneSites model): 0.0702 ± 0.00475 sites
  ΔH (ITC OneSites model): -1.883E4 ± 1326 cal/mol
  ΔS (ITC OneSites model): -47.2 cal/mol/deg
hGal8^NTD [8]
  Kd: 93 ± 1 µM
hGal8^NTD [8]; hGal8^NTD, 298 K, PBS
  K (binding constant, ITC OneSites model): 1.08E4 ± 121 M-1
  N (ITC OneSites model): 0.818 ± 0.0154 sites
  ΔH (ITC OneSites model): -1.466E4 ± 302.2 cal/mol
  ΔS (ITC OneSites model): -30.7 cal/mol/deg
hGal8^CTD [9]
  Kd: 893 ± 25 µM
hGal8^CTD [9]; hGal8^CTD, 298 K, PBS
  K (binding constant, ITC OneSites model): 1.12E3 ± 31.0 M-1
  N (ITC OneSites model): 1.68 ± 0.212 sites
  ΔH (ITC OneSites model): -3.045 ± 0.4012 kcal/mol
  ΔS (ITC OneSites model): 3.74 cal/mol/deg
[10]
  Kd: ~130 µM and 128 µM
[11]
  Kd: ~1500 µM and 1480 µM
hGal8^NTD [12]
  Kd: 88 ± 2 µM
hGal8^NTD [13]
  Kd: 89 ± 26 µM
hGal8^NTD [14]
  Kd: 84 to 93 µM and 80 µM
hGal8^CTD [15]
  Kd: 772 ± 56 µM
hGal8^CTD [16]
  Kd: 873 ± 526 µM
hGal8^CTD [17]
  Kd: 664 to 950 µM and 800 µM
[18]
  Kd: 1186 ± 11 µM
[19]
  Kd: 167 ± 7 µM
hGal7 (human galectin-7) [20]
  Kd: 397 ± 14 µM
hGal7 (human galectin-7) [21]
  Kd: 352 ± 9 µM
hGal7 (human galectin-7) [22]
  Kd: 340 µM and 331 µM
hGal7 (human galectin-7) [23]
  Kd: 347 ± 180 µM

## OC[C@H]1O[C@@H](S[C@@H]2O[C@H](CO)[C@H](O)[C@H](n3cc(-c4cccc(F)c4)nn3)[C@H]2O)[C@H](O)[C@@H](n2cc(-c3cccc(F)c3)nn2)[C@H]1O [TD139]
hGal3
  Kd: low nanomolar
